Assay results reported in ChEMBL document CHEMBL1201862, “PubChem BioAssay data set” (2004).
Calls of active or inactive are those of the source.

What was measured:
[1] = target: T1, Protein skinhead-1 (Caenorhabditis elegans, UniProt P34707); type: functional
T1 sequence (P34707 whole entry): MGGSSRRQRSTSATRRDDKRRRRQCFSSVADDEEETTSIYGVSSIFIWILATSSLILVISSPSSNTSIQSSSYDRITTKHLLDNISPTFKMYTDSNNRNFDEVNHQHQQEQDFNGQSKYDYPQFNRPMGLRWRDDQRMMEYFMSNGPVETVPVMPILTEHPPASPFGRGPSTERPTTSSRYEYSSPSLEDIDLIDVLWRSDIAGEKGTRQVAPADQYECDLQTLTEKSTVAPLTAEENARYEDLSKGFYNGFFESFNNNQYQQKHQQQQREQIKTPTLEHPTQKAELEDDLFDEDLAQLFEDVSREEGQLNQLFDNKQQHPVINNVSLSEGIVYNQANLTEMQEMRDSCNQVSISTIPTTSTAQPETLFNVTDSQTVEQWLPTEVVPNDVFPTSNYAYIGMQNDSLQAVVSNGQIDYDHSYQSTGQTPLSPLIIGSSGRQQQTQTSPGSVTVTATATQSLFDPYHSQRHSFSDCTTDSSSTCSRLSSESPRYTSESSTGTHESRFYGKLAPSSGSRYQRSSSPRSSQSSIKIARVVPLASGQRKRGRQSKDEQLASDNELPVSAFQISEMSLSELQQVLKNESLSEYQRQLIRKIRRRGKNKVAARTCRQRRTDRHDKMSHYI

[2] = microbe, parasite or virus in culture; type: functional; conditions: Mycobacterium tuberculosis
[3] = target: Large T antigen (Simian virus 40, UniProt P03070); type: functional, Betapolyomavirus macacae;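 also: Confirmatory-stage PubChem screen for compounds that inhibit SV40 T antigen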
Large T antigen, sequence (P03070 whole entry): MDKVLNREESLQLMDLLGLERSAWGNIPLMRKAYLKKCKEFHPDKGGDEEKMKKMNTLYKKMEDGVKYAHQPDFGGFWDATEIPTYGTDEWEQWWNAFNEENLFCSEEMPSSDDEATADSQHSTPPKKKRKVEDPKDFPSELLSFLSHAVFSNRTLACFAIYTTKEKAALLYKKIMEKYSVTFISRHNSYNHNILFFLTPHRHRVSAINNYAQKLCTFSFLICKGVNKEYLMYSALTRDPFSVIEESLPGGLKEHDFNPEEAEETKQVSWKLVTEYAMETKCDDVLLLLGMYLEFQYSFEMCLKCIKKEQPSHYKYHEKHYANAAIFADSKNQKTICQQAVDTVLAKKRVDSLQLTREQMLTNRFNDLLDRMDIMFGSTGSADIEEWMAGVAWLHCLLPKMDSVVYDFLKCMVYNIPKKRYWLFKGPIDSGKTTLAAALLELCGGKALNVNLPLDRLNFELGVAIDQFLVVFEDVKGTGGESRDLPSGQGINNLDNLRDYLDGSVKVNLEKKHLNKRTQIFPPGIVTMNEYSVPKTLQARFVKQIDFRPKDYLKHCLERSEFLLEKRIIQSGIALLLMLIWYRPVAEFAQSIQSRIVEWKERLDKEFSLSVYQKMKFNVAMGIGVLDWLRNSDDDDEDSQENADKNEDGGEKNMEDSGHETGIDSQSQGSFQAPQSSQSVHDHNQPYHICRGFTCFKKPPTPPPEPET

[4] = Luminescence Cell-Based Dose Retest to Confirm Inhibitors of Cancer Stem Cells. [Related pubchem assays (depositor defined):AID2717, AID2721]; type: functional; conditions: Homo sapiens
[5] = target: T2, Protein RecA (Mycobacterium tuberculosis, UniProt P9WHJ3); assay: Fluorescence Cell-Free Homogeneous Dose Retest to Identify Inhibitors of RecA-Intein Splicing Activity. [Related pubchem assays (depositor defined):AID2097, AID2223, AID489010, AID492950]; type: functional
T2 sequence (P9WHJ3 whole entry): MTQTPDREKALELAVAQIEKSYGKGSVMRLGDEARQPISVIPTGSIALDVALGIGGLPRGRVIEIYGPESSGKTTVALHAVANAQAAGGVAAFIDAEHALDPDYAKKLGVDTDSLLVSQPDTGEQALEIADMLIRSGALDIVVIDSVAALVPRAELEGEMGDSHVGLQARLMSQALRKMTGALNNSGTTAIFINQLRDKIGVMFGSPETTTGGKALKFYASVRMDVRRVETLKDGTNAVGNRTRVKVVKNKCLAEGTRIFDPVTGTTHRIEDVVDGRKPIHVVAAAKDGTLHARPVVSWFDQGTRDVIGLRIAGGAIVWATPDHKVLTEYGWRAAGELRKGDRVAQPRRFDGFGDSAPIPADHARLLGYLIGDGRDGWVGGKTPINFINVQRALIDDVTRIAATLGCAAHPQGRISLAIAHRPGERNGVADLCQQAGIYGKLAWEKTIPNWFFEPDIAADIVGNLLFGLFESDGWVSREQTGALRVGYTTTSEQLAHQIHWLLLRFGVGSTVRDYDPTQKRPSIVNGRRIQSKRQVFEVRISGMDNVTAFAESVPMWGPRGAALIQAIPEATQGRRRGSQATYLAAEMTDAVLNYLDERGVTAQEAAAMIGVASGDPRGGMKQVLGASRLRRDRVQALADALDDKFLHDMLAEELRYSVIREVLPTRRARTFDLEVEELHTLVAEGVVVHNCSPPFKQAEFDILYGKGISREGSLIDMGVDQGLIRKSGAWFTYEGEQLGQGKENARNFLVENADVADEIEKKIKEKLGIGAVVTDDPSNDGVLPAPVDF

[6] = tested on: Streptococcus; assay: Group A Streptococcus viability loss, dose response, counter-screen for streptokinase expression inhibitor project, luminescence, BacTiterGlo (AID 1915); type: functional, organism-based;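 also: potency for reduction of bacterial viability or growth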
[7] = target: Genome polyprotein (dengue virus type 2, UniProt P29990); assay: Dengue-2 NS5 methyltransferase inhibitors, primary screen, biochemical, confirmation dose response (AID 588689); type: functional
Genome polyprotein, sequence (P29990 2492-3391 limits assumed): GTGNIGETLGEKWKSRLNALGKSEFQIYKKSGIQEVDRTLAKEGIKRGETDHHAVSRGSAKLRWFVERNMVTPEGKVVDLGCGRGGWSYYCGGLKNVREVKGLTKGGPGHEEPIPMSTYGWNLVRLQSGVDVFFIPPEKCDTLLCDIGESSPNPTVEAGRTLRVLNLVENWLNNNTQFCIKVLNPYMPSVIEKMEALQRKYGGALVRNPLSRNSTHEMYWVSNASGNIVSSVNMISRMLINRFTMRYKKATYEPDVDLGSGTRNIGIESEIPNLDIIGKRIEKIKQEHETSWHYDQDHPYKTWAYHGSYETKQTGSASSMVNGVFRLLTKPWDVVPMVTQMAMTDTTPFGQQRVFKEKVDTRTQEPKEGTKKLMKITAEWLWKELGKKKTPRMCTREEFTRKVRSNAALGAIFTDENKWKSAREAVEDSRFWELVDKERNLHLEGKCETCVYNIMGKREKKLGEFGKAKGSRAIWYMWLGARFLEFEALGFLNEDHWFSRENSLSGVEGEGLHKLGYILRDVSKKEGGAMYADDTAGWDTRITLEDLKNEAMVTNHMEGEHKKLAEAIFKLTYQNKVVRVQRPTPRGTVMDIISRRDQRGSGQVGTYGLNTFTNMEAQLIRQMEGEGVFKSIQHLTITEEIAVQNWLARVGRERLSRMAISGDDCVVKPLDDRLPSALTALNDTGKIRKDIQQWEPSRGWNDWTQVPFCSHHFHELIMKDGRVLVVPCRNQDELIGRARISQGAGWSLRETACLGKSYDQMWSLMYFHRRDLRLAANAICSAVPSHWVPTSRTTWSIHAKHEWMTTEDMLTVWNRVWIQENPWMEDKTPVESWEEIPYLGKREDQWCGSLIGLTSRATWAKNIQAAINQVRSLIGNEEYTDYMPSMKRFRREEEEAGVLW

[8] = tested on: Streptococcus sp. 'group A'; assay: growth inhibition of control SK(-) GAS strain, dose response, counter-screen for streptokinase expression inhibitor project, luminescence, kanamycin, BacTiterGlo, confirmation (AID 1900); type: functional, organism-based
[9] = target: T3, Streptokinase A (Streptococcus pyogenes serotype M1, UniProt P10520); assay: S. pyogenes streptokinase expression inhibitors, potency, dose response, plasminogen activation absorbance, OD405 (AID 1914); type: functional, Streptococcus pyogenes M1 GAS;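 also: secreted streptokinase activity via plasminogen activation per viability signal from cell pellet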
T3 sequence (P10520 whole entry): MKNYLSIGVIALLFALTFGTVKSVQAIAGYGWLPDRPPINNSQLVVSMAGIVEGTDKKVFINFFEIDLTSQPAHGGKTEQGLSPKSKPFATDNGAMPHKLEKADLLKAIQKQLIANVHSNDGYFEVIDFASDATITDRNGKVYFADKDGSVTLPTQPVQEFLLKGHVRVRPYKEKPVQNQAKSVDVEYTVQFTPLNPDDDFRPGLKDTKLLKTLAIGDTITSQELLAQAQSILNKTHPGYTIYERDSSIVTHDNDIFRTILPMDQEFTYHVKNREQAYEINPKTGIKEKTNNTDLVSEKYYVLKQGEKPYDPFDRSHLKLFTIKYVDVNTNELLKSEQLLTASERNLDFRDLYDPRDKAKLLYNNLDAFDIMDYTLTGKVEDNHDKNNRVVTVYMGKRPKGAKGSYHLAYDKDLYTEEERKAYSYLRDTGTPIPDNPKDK

[10] = target: T4, Replicative DNA helicase DnaB (Mycobacterium tuberculosis, UniProt P9WMR3); assay: DnaB intein splicing inhibitors, dose response, biochemical, cell-free fluorescence (AID 449749); type: functional
T4 sequence (P9WMR3 whole entry): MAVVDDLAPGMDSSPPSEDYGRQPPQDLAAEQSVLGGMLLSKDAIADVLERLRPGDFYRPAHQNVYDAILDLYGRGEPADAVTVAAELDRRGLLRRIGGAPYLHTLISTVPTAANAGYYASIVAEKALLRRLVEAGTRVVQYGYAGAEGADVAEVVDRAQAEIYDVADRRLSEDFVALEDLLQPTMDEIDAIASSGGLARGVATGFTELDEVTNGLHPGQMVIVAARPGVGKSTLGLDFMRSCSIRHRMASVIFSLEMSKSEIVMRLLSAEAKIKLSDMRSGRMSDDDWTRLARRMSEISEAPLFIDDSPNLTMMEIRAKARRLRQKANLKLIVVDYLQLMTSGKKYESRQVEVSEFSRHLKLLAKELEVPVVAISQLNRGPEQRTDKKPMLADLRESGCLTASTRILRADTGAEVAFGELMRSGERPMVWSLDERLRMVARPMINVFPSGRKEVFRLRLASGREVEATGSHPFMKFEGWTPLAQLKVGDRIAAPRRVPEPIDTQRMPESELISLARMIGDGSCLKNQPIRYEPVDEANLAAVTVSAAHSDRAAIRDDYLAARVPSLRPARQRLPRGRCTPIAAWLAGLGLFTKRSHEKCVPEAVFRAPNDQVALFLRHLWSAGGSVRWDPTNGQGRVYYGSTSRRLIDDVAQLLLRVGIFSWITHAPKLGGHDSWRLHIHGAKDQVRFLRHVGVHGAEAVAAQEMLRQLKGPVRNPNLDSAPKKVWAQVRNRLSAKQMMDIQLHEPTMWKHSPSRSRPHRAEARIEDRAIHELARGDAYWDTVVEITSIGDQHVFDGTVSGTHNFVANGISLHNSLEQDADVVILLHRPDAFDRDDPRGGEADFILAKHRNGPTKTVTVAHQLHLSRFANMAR

[11] = tested on: H4; assay: Luminescence Cell-Based Dose Response HTS to Identify Activators of 5'UTR Stem-Loop Driven Prion Protein mRNA Translation in H4 Neuroglioblastoma Cells. [Related pubchem assays: 1829 (Project Summary), 1814 (Primary HTS)]; type: functional; conditions: Homo sapiens
[12] = Luminescence Cell-Based Dose Response HTS to Identify Activators of Luciferase Translation or Activity in H4 […] Cells. [Related pubchem assays: 1829 (Project Summary), 1814 (Primary HTS)]; type: functional
[13] = inhibitors of intracellular T. cruzi replication, confirmation, NIH3T3 host cells, beta-gal luminescence (AID 2044); type: functional, cell-based;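 also: intracellular parasites grown in NIH/3T3 mouse fibroblasts as host cells; luminescent beta-galactosidase reporter signal from transgenic T. cruzi replicating inside host cells; inhibitors lower the luminescence signal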
[14] = cytotoxicity toward NIH3T3 fibroblasts, dose response, counter-screen, cell-based, ATP luminescence, mouse fibroblasts (AID 2010); type: functional;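 also: cells exposed to compound for about 90 hours before reading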
[15] = target: T5, Heat shock factor protein 1 (Mus musculus, UniProt P38532); assay: HSF1 potentiators in luciferase reporter cells, confirmation, cell-based, NIH3T3, luminescence, dose retest (AID 435004); type: functional;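 also: stress induced by proteasome inhibitor MG132 added 30 min after compound; luciferase reporter driven by HSF1 response element in NIH3T3 cells; actives raise luminescence as potentiators of the MG132 stress response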
T5 sequence (P38532 whole entry): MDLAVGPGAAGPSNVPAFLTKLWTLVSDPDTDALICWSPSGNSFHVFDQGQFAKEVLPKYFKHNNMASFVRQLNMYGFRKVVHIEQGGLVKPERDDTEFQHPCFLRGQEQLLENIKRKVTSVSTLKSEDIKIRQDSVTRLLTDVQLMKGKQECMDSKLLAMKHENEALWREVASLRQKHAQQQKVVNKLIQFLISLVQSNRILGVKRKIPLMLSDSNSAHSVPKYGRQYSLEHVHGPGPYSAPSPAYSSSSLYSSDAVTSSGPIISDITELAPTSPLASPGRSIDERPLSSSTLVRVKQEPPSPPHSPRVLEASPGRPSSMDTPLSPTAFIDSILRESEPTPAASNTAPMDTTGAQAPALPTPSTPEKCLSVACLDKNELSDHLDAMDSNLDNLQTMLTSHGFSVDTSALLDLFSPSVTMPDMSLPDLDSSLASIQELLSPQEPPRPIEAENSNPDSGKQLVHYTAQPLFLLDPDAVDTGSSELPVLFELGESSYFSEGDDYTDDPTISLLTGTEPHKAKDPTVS

[16] = Luminescence Cell-Based Dose Confirmation HTS to Identify Activators of 5'UTR Stem-Loop Driven Alpha-Synuclein mRNA Translation in H4 Neuroglioblastoma Cells. [Related pubchem assays: 1829 (Project Summary), 1814 (Primary HTS)]; type: functional
[17] = target: Induced myeloid leukemia cell differentiation protein Mcl-1 (Homo sapiens, UniProt Q07820); type: functional
Induced myeloid leukemia cell differentiation protein Mcl-1, sequence (Q07820 whole entry): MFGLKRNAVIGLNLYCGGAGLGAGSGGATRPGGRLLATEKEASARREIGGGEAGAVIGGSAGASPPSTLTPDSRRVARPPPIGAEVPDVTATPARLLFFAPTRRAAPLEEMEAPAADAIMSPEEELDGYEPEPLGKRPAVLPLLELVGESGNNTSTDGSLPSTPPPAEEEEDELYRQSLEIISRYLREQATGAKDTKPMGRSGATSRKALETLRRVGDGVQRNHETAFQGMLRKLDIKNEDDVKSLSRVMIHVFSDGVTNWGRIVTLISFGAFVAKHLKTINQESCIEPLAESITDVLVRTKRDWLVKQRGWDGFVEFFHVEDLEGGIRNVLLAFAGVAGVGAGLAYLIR

With `COc1ccc(CN2CCN(Cc3ccco3)CC2)cc1` the IC50 [1] was > 100 µM (inactive).
For `Cc1cc(C)n2nc(/C(C#N)=C/c3ccccn3)c(C#N)c2n1`, the CC50 [2] was > 40 µM (active).
In the case of `COc1cc(/C=N/N=C2/C(=O)Nc3ccccc32)ccc1O`, the IC50 [3] is reported as 8.73 µM (active).
For `O=C(c1ccccc1)c1ccc(OCCOCCN2CCN(Cc3ccccc3)CC2)cc1`, the CC50 [2] was > 40 µM (active).
For `CCOc1cc(/C=C/c2cc(C(F)(F)F)nc(O)n2)ccc1O`, the IC50 [3] was 13 µM (active).
For `OC(CN1CCN(c2ccccn2)CC1)Cn1c2ccccc2c2ccccc21` (stereo not given), the CC50 [2] was > 40 µM (active).
In the case of `O=C(CCOc1ccccc1)N1CCN(c2ccc(O)cc2)CC1`, the IC50 [3] is reported as 4.19 µM (active) and the AC50 [4] is reported as 11.3 µM (active).
With `Cc1nn(-c2ccccc2)c(Cl)c1/C=C1\SC(=S)N(CCCCCC(=O)O)C1=O` the EC50 [5] was 14.2 µM (active), the EC50 [6] was 11.2 µM (active) and the IC50 [7] was 41.4 µM (active). The EC50 [8] was 5.26 µM (active), the EC50 [9] was 40.7 µM (inconclusive) and the AC50 [10] was 4.93 µM (active).
In the case of `O=C(CN1C(=O)NC2(CCCC2)C1=O)Nc1cc(S(=O)(=O)N2CCOCC2)ccc1OCC(F)(F)F`, the IC50 [1] is reported as > 100 µM (inactive).
For `Cc1ccccc1-c1nc(C[S+]([O-])CC(=O)NCc2ccc3c(c2)OCO3)c(C)o1` (stereo not given), the IC50 [1] was > 100 µM (inactive).
For `CC(C)(C)c1ccc(-c2nc3nc(O)cc(NC(=O)c4ccco4)n3n2)cc1`, the CC50 [2] was > 40 µM (active).
With `COc1cc(CCC(=O)OCC(=O)Nc2ccc(F)cc2F)cc(OC)c1OC` the IC50 [1] was > 100 µM (inactive).
For `O=c1c(-c2cnn(-c3ccccc3)c2)coc2cc(O)ccc12`, the CC50 [2] was > 40 µM (active).
In the case of `c1csc(-c2cn3ccc4ccccc4c3n2)c1`, the IC50 [1] is reported as 33.6 µM (active), the EC50 [11] is reported as 0.106 µM (active) and the EC50 [12] is reported as 26 µM (active).
In the case of `Cc1ccc2nc3c(cc(C(=O)NCc4ccco4)c(=N)n3Cc3ccco3)c(=O)n2c1`, the CC50 [2] is reported as 23.8 µM (active).
For `C=C[S+]([O-])c1sc(Cl)c(N2CCOCC2)c1[N+](=O)[O-]` (stereo not given), the IC50 [3] was 9.77 µM (active), the EC50 [5] was 18.8 µM (active) and the EC50 [13] was 2.99 µM (active). The EC50 [14] was 3.08 µM (active), the AC50 [10] was 22.2 µM (active) and the EC50 [15] was 3.36 µM (inconclusive).
With `CCN1CCN(c2ncnc3c2c(-c2ccccc2)cn3-c2ccc(F)cc2)CC1` the IC50 [1] was 12.6 µM (active).
With `Cc1ccc(NC(=O)C2=C(O)c3sccc3N(C)S2(=O)=O)cc1` the EC50 [16] was 13.2 µM (active), the EC50 [11] was > 120 µM (not active) and the EC50 [12] was 27.2 µM (active).
With `CCOc1ccc(OCCC(=O)OCC(=O)N2CCN(S(=O)(=O)c3ccc(C)cc3)CC2)cc1` the IC50 [3] was 11.1 µM (active).
For `O=C(O)/C=C/C(=O)c1ccc2c(c1)NC(=O)CO2`, the IC50 [7] was > 100 µM (active).
In the case of `COc1ccc(OS(=O)(=O)Cc2ccccc2)cc1`, the EC50 [16] is reported as > 120 µM (not active), the EC50 [11] is reported as 57.5 µM (active) and the EC50 [12] is reported as 10.8 µM (active).
With `Cc1cc(-n2c(C)cc(C(=O)COc3ccccc3[N+](=O)[O-])c2C)no1` the EC50 [16] was 13.5 µM (active), the EC50 [11] was > 120 µM (not active) and the EC50 [12] was 44.9 µM (active).
In the case of `Fc1ccc(-c2nc(-c3cccs3)no2)cc1`, the IC50 [1] is reported as > 100 µM (inactive).
With `Cc1cnc(C(=O)N(CCCn2ccnc2)C2C(=O)Nc3ccccc3N=C2c2ccccc2)cn1` (stereo not given) the IC50 [1] was > 100 µM (inactive).
For `CCN(CC)c1ccc(NC(=O)CCNC(=O)c2ccco2)cc1`, the IC50 [3] was 6.69 µM (active) and the IC50 [17] was 9.57 µM (not active).
